For the experiment, the system named is endogenous cellular STAT1 (phosphorylated at Tyr701) in NCI-H1373 cells. The experiment is described as follows: Phospho-STAT1 (Tyr701) LANCE Ultra TR-FRET Detection Assay. Type of experiment: cell-based. The settings on record: Homo sapiens, NCI-H1373, 48 h, phospho-STAT1 (Tyr701) induction, read-out: NH1373 pSTAT1 EC50. For orientation: TR-FRET usually uses a lanthanide donor and a delayed reading to cut background.

Results on 18 compounds are retold here after patent US12459922B2 (Gilead Sciences, Inc., priority 2022, dated 2025).

Broadly, the EC50 is the midpoint of the concentration-response curve. Regarding `O=c1[nH]ncc(N[C@@H]2CC[C@H](Cn3ccc4cc(-c5ncc(C(F)(F)F)cn5)c(F)cc4c3=O)C2)c1C(F)(F)F` [Example 446, 7-fluoro-2-(((1S,3R)-3-((6-oxo-5-(trifluoromethyl)-1,6-dihydropyridazin-4-yl)amino)cyclopentyl)methyl)-6-(5-(trifluoromethyl)pyrimidin-2-yl)isoquinolin-1(2H)-one], the EC50 is 0.27 µM. Take `C[C@@H](CCCn1ccc2cc(-c3nc(N)c(C(F)(F)F)cc3C#N)c(F)cc2c1=O)Nc1cn[nH]c(=O)c1C(F)(F)F` [Example 290, (S)-6-amino-2-(7-fluoro-1-oxo-2-(4-((6-oxo-5-(trifluoromethyl)-1,6-dihydropyridazin-4-yl)amino)pentyl)-1,2-dihydroisoquinolin-6-yl)-5-(trifluoromethyl)nicotinonitrile]: the EC50 was 0.0213 µM. With `C[C@@H](CCCn1ccc2cc(-c3ccc(C(F)(F)F)cn3)ccc2c1=O)Nc1cn[nH]c(=O)c1C(F)(F)F` (single isomer, unassigned) [Example 3] the figure was 0.108 µM; with `COc1cnc(-c2cc3ccn(CCC[C@H](C)Nc4cn[nH]c(=O)c4C(F)(F)F)c(=O)c3cc2F)nc1N` [Example 102, 6-(4-amino-5-methoxy-pyrimidin-2-yl)-7-fluoro-2-[(4S)-4-[[6-oxo-5-(trifluoromethyl)-1H-pyridazin-4-yl]amino]pentyl]isoquinolin-1-one], 0.00823 µM; with `C[C@@H](CCCn1ccc2cc(-c3cnc(C(F)F)cn3)c(F)cc2c1=O)Nc1cn[nH]c(=O)c1C(F)(F)F` [Example 329, (S)-6-(5-(difluoromethyl)pyrazin-2-yl)-7-fluoro-2-(4-((6-oxo-5-(trifluoromethyl)-1,6-dihydropyridazin-4-yl)amino)pentyl)isoquinolin-1(2H)-one], 0.0977 µM.

Regarding `O=c1[nH]ncc(N[C@H](CCCn2ccc3cc(-c4cnc(OC(F)F)cn4)c(F)cc3c2=O)COC(F)F)c1C(F)(F)F` [Example 371, (R)-2-(5-(difluoromethoxy)-4-((6-oxo-5-(trifluoromethyl)-1,6-dihydropyridazin-4-yl)amino)pentyl)-6-(5-(difluoromethoxy)pyrazin-2-yl)-7-fluoroisoquinolin-1(2H)-one], the EC50 turned out to be 0.00678 µM.

Turning to `O=c1[nH]ncc(N[C@H]2CCC[C@@H]2CCn2ccc3cc(-c4ncc(C(F)(F)F)cn4)c(F)cc3c2=O)c1C(F)(F)F` [Example 179, 7-fluoro-2-(2-((1R,2S)-2-((6-oxo-5-(trifluoromethyl)-1,6-dihydropyridazin-4-yl)amino)cyclopentyl)ethyl)-6-(5-(trifluoromethyl)pyrimidin-2-yl)isoquinolin-1(2H)-one], the concentration giving a half-maximal response (EC50) worked out at 0.00403 µM.

On to `C[C@@H](CCCn1cnc2cc(-c3ncc(C(F)(F)F)c(N4CC(O)C4)n3)c(F)cc2c1=O)Nc1cn[nH]c(=O)c1C(F)(F)F` [Example 124, (S)-6-fluoro-7-(4-(3-hydroxyazetidin-1-yl)-5-(trifluoromethyl)pyrimidin-2-yl)-3-(4-((6-oxo-5-(trifluoromethyl)-1,6-dihydropyridazin-4-yl)amino)pentyl)quinazolin-4(3H)-one], for which the concentration for a half-maximal effect (EC50) was 0.0114 µM. The figure for `[2H]C([2H])([2H])OC[C@@H](CCCn1ccc2cc(-c3ncc(C(F)F)c(N)n3)c(F)cc2c1=O)Nc1cn[nH]c(=O)c1C(F)(F)F` [Example 429, 6-[4-amino-5-(difluoromethyl)pyrimidin-2-yl]-7-fluoro-2-[(4R)-4-[[6-oxo-5-(trifluoromethyl)-1H-pyridazin-4-yl]amino]-5-(trideuteriomethoxy)pentyl]isoquinolin-1-one] is 0.00721 µM; for `O=c1[nH]ncc(N[C@H]2CCN[C@@H]2CCn2ccc3cc(-c4ncc(C(F)(F)F)cn4)c(F)cc3c2=O)c1C(F)(F)F` [Example 440, 7-fluoro-2-(2-((2R,3S)-3-((6-oxo-5-(trifluoromethyl)-1,6-dihydropyridazin-4-yl)amino)pyrrolidin-2-yl)ethyl)-6-(5-(trifluoromethyl)pyrimidin-2-yl)isoquinolin-1(2H)-one] it is 1.75 µM; for `COc1cnc(-c2cc3ncn(CCC[C@H](C)Nc4cn[nH]c(=O)c4C(F)(F)F)c(=O)c3cc2F)nc1N` [Example 66, 7-(4-amino-5-methoxy-pyrimidin-2-yl)-6-fluoro-3-[(4S)-4-[[6-oxo-5-(trifluoromethyl)-1H-pyridazin-4-yl]amino]pentyl]quinazolin-4-one] it is 0.0715 µM. For `Nc1nc(-c2cc3ncn(CC[C@H]4CCC[C@@H]4Nc4cn[nH]c(=O)c4C(F)(F)F)c(=O)c3cc2F)ncc1C(F)(F)F` [Example 464, 7-(4-amino-5-(trifluoromethyl)pyrimidin-2-yl)-6-fluoro-3-(2-((1R,2S)-2-((6-oxo-5-(trifluoromethyl)-1,6-dihydropyridazin-4-yl)amino)cvclopentyl)ethyl)quinazolin-4(3H)-one], the 50% effective concentration (EC50) stood at 0.00362 µM. With `C[C@@H](CCCn1ccc2cc(-c3ncc(C#N)c(N)n3)c(F)c(F)c2c1=O)Nc1cn[nH]c(=O)c1C(F)(F)F` [Example 110, 4-amino-2-[7,8-difluoro-1-oxo-2-[(4S)-4-[[6-oxo-5-(trifluoromethyl)-1H-pyridazin-4-yl]amino]pentyl]-6-isoquinolyl]pyrimidine-5-carbonitrile] the figure was 0.0134 µM; with `C[C@H](Nc1cn[nH]c(=O)c1C(F)(F)F)[C@@H]1C[C@H]1Cn1ccc2cc(-c3ncc(C(F)(F)F)cn3)c(F)cc2c1=O` [Example 68, 7-fluoro-2-[[(1R,2R)-2-[(1S)-1-[[6-oxo-5-(trifluoromethyl)-1H-pyridazin-4-yl]amino]ethyl]cyclopropyl]methyl]-6-[5-(trifluoromethyl)pyrimidin-2-yl]isoquinolin-1-one], 10 µM. As to `C[C@@H](CCCn1ccc2cc(-c3ncc(C(F)(F)F)c(N4CCC4)n3)c(F)cc2c1=O)Nc1cn[nH]c(=O)c1C(F)(F)F` [Example 187, (S)-6-(4-(azetidin-1-yl)-5-(trifluoromethyl)pyrimidin-2-yl)-7-fluoro-2-(4-((6-oxo-5-(trifluoromethyl)-1,6-dihydropyridazin-4-yl)amino)pentyl)isoquinolin-1(2H)-one], the EC50 worked out at 0.0207 µM. The figure for `O=c1[nH]ncc(N2CCC2CCCn2ccc3cc(-c4ncc(C(F)(F)F)cn4)c(F)cc3c2=O)c1C(F)(F)F` (stereo not drawn) [Example 72, 7-fluoro-2-[3-[1-[6-oxo-5-(trifluoromethyl)-1H-pyridazin-4-yl]azetidin-2-yl]propyl]-6-[5-(trifluoromethyl)pyrimidin-2-yl]isoquinolin-1-one] is 0.00585 µM; for `COc1cnc(-c2cc3ccn(CCC[C@H](C)Nc4cn[nH]c(=O)c4C(F)(F)F)c(=O)c3cc2F)nc1NCCO` [Example 218, (S)-7-fluoro-6-(4-((2-hydroxyethyl)amino)-5-methoxypyrimidin-2-yl)-2-(4-((6-oxo-5-(trifluoromethyl)-1,6-dihydropyridazin-4-yl)amino)pentyl)isoquinolin-1(2H)-one] it is 1.1 µM. With `Nc1cc(-c2cc3ccn(CCC[C@H](COC(F)F)Nc4cn[nH]c(=O)c4C(F)(F)F)c(=O)c3cc2F)cnc1C(F)(F)F` [Example 400, (R)-6-(5-amino-6-(trifluoromethyl)pyridin-3-yl)-2-(5-(difluoromethoxy)-4-((6-oxo-5-(trifluoromethyl)-1,6-dihydropyridazin-4-yl)amino)pentyl)-7-fluoroisoquinolin-1(2H)-one] the figure was 0.0568 µM.
